# In patent US20160175214A1, “ANHYDROUS COSMETIC COMPOSITION FOR TOPICAL APPLICATION” (The Procter & Gamble Company, priority 2014, published 2016):
# Experiment: Solubility in hydrophobic anhydrous, glycol free, antiperspirant free stick formulations
# Assay type: physicochemical
# Source text: Additional considerations regarding exemplary Vitamin B5 derivatives may apply. For example, in order to deliver Vitamin B5 (or a derivative thereof) from an anhydrous, hydrophobic, glycol free and antiperspirant free cosmetic stick, a corresponding matrix soluble form or derivative of Vitamin B5 must be used to achieve the desired benefits of hair softening, shave bump reduction and wound healing from shave cut damage. For example, if an incompatible or insoluble form of Vitamin B5 is used, such as panthenol, this will not form a homogenous one phase solution when the ingredients are blended and heated together from the melt.
# As such, the Vitamin B5 derivative utilized should be soluble in the anhydrous, hydrophobic, glycol free and antiperspirant free matrix.
compound,measurement,value
CCOCC(C)(C)C(O)C(=O)NCCCO (stereo not shown) [Panthenyl Ethyl Ether],"Solublility in hydrophobic Anhydrous, glycol free, antiperspirant free Stick formulations",Soluble
